Results as given in patent publication US4317917A, “Derivatives of methyl-substituted or methoxy-substituted 2-hydroxybenzoic acids, and pharmaceutical formulations containing them” (priority 1979, dated 1982).
In brackets after ≈: the same amount, converted by molar mass.

How the values were obtained:
[1] = Acute toxicity (LD50) in the Swiss mouse; settings: in vivo, 95% reliability limits in brackets, seventh day
Experimental: (§1) Acute toxicity of the product was studied in the Swiss mouse and Wistar rat by oral and intraperitoneal administration. The substance was carried in 5% gum arabic for both methods of administration. The volumes inoculated for both methods of administration were 20 ml/kg of body weight for the mouse and 5 ml/kg for the rat. The LD50 values expressed in mg/kg were calculated on the seventh day of treatment by the probital analysis method.

[2] = Acute toxicity (LD50) in the Wistar rat; settings: in vivo, seventh day
Experimental: as §1

rat = assay: Subacute toxicity in the rat by intramuscular administration; assay type: in vivo; settings: 60 and 120 mg/kg/die, 25 consecutive days
Experimental: 2. Subacute toxicity in the rat by intramuscular administration
The test was carried out for 25 consecutive days using drug doses of 60 and 120 mg/kg/die.

[3] = test system: conjunctival sac of the eye of a rabbit; assay: Local tolerability check, conjunctival sac of the rabbit eye; assay type: in vivo; settings: 0.5 solution dropped into conjunctival sac
[4] = test system: tissues where the drug was introduced; assay: Local tolerability check, intramuscular administration in the rat; assay type: in vivo; settings: 60-120 mg/kg/die, 25 consecutive days
[5] = test system: edema induced in the rear paw of the rat by carrageen; assay: Antiinflammatory activity, edema by carrageen in the rear paw of the rat (method of Winter); assay type: in vivo, Wistar rat
Experimental: The antiinflammatory activity of AF1 was evaluated in comparison with that of a known drug (Tanderil®) by inhibiting the edema induced in the rear paw of the rat by carrageen. The method used is that described by Winter.
The substances examined were administered orally to Wistar rats having a body weight of 165±15 g.
The percentage edema inhibition for the various groups of animals was calculated by putting the average percentage increase of the control group equal to 100.

edema induced by kaolin = assay: Antiinflammatory activity, edema by kaolin, diameter of the tibiotarsal joint; assay type: in vivo, rat
Experimental: The antiedematous action of AF1 was also investigated by the test of Conbon and coll. (Arch.Int.Pharmacodyn. 99; 474, 1954), consisting of measuring the diameter of the tibiotarsal joint in both the rear paws of the rat. Groups of five animals representing controls and treated animals were used for two separate experiments. 0.2 ml of a sterile 10% kaolin suspension was injected directly into the joint of the two rear paws of each animal.
The joint diameter was measured one hour after the kaolin injection and then every 24 hours afterwards for five consecutive days. The AF1 compound was administered intraperitoneally in a quantity of 100 mg/kg one hour after the kaolin injection and at the same time on the following days over the entire test period.

painful reaction = assay: Analgesic activity in the mouse (method of Ben Bassat and coll.); assay type: in vivo; settings: 100 mg/kg oral
Experimental: The analgesic activity of the compound under examination was tested in the mouse by the method of Ben Bassat and coll. (Arch. Int. Pharmacodyn, 122, 434, 1954) and comparing the drug in question with Tanderil® (T).

stomachs = assay: Ulcerogenic action in the female Wistar rat; assay type: in vivo; settings: four hours after treatment
Experimental: The ulcerogenic action of the product was evaluated in the female Wistar rat in comparison with that of other known antiinflammatory drugs.
The products were administered orally in a dose corresponding to about two fifths their LD50.
The animals were sacrificed four hours after treatment, and the stomachs examined to check any presence of ulcers.

[6] = test system: gastric or duodenal lesion; assay: Gastric or duodenal lesions in mice treated for 5 consecutive days; assay type: in vivo; settings: 200 mg/kg per day
Haemophilus influeniae = assay: In vitro antibacterial activity, minimum inhibiting concentration (C.M.I.), Haemophilus influeniae; assay type: cell-based; settings: Gram (-), Difco nutrient broth
Experimental: (§2) The antiseptic power of the substance under examination was evaluated by determining the minimum inhibiting concentration (C.M.I.) on a series of Gram negative and Gram positive germs related to the pathology of the respiratory tree.
(§3) The culture broth used was Difco nutrient broth, and 8 test samples were used for each concentration tested. Guaiacol was used as the comparison drug.

Sarcina lutea = assay: In vitro antibacterial activity, minimum inhibiting concentration (C.M.I.), Sarcina lutea; assay type: cell-based; settings: Micrococcus luteus, Gram (+), Difco nutrient broth
Experimental: as §2, §3

Micrococcus catarrhalis = assay: In vitro antibacterial activity, minimum inhibiting concentration (C.M.I.), Micrococcus catarrhalis; assay type: cell-based; settings: Gram (-), Difco nutrient broth
Experimental: as §2, §3

Micrococcus pyogenes = assay: In vitro antibacterial activity, minimum inhibiting concentration (C.M.I.), Micrococcus pyogenes; assay type: cell-based; settings: Staphylococcus aureus, Gram (+), Difco nutrient broth
Experimental: as §2, §3

[7] = test system: Micrococcus tuberc. (bovis); assay: In vitro antibacterial activity, minimum inhibiting concentration (C.M.I.), Micrococcus tuberc. (bovis); assay type: cell-based; settings: read-out: Minimum inhibiting concentration
Experimental: as §2, §3

[8] = day 1 after kaolin, 100 mg/kg/day intraperitoneally
[9] = day 2 after kaolin, 100 mg/kg/day intraperitoneally
[10] = day 3 after kaolin, 100 mg/kg/day intraperitoneally
[11] = day 4 after kaolin, 100 mg/kg/day intraperitoneally
[12] = day 5 after kaolin, 100 mg/kg/day intraperitoneally

## Cc1ccc(OC(=O)C=Cc2ccccc2)c(C(=O)O)c1 [AF1, 2-(3-phenyl-2-propenoyloxy)-5-methylbenzoic acid]
[1]; ip
  LD50 at 168 h: 410 mg/kg
[1]; oral
  LD50 at 168 h: 902 mg/kg
[2]; ip, 95% reliability limits in brackets
  LD50 at 168 h: 734 mg/kg
[2]; oral
  LD50 at 168 h: > 2000 mg/kg
rat
  condition of the rats: always excellent
  significant changes in general condition and weight: neither were there significant changes in general condition and weight
[3]
  irritating or damaging modification to local tissues: no irritating or otherwise damaging modification to local tissues
[4]
  macroscopic change in the tissues where the drug was introduced: no macroscopic change in the tissues where the drug was introduced
  other undesirable local phenomena: neither were other undesirable local phenomena observed
[5]; 25 mg/kg oral, 4 hours
  Percentage edema inhibition relative to the controls: 42%
[5]; 25 mg/kg oral, 6 hours
  Percentage edema inhibition relative to the controls: 71%
[5]; 50 mg/kg oral, 4 hours
  Percentage edema inhibition relative to the controls: 62%
[5]; 50 mg/kg oral, 6 hours
  Percentage edema inhibition relative to the controls: 84%
[5]; 75 mg/kg oral, 4 hours
  Percentage edema inhibition relative to the controls: 73%
[5]; 75 mg/kg oral, 6 hours
  Percentage edema inhibition relative to the controls: 87%
Edema induced by kaolin; 0 + 1 hour after kaolin (time of first AF1 dose)
  Average of diameters, treated animals: 6.9 mm
Edema induced by kaolin; day 0 (baseline, before AF1)
  Average of diameters, treated animals: 5.8 mm
Edema induced by kaolin; [8]
  % change in tibiotarsal joint diameter relative to controls: -11.1%
  Average of diameters, treated animals: 8.8 mm
Edema induced by kaolin; [9]
  % change in tibiotarsal joint diameter relative to controls: -14.7%
  Average of diameters, treated animals: 8.7 mm
Edema induced by kaolin; [10]
  % change in tibiotarsal joint diameter relative to controls: -26.6%
  Average of diameters, treated animals: 8.0 mm
Edema induced by kaolin; [11]
  % change in tibiotarsal joint diameter relative to controls: -23.3%
  Average of diameters, treated animals: 7.9 mm
Edema induced by kaolin; [12]
  % change in tibiotarsal joint diameter relative to controls: -25.7%
  Average of diameters, treated animals: 7.5 mm
Painful reaction; 30 min.
  % Increase in the painful reaction time relative to the controls: 22%
Painful reaction; 60 min.
  % Increase in the painful reaction time relative to the controls: 32%
Painful reaction; 90 min.
  % Increase in the painful reaction time relative to the controls: 36%
Painful reaction; 120 min.
  % Increase in the painful reaction time relative to the controls: 48%
Painful reaction; 150 min.
  % Increase in the painful reaction time relative to the controls: 51%
stomachs; 400 mg/kg oral
  No. of ulcerated animals/No. of treated animals: 0/10
stomachs; 800 mg/kg oral
  No. of ulcerated animals/No. of treated animals: 1/10
[6]
  gastric or duodenal lesion: no sign of any gastric or duodenal lesion
Haemophilus influeniae
  MIC: 16 mg/mL (≈ 56.7 mM)
Sarcina lutea
  MIC: 9.15 mg/mL (≈ 32.4 mM)
Micrococcus catarrhalis
  MIC: 4.3 mg/mL (≈ 15.2 mM)
Micrococcus pyogenes
  MIC: 16.6 mg/mL (≈ 58.8 mM)
[7]
  MIC: 3.15 mg/mL (≈ 11.2 mM)

## COc1ccccc1O [Guaiacol, reference compound]
Haemophilus influeniae
  MIC: 33 mg/mL (≈ 266 mM)
Sarcina lutea
  MIC: 33 mg/mL (≈ 266 mM)
Micrococcus catarrhalis
  MIC: 16.6 mg/mL (≈ 134 mM)
Micrococcus pyogenes
  MIC: 33 mg/mL (≈ 266 mM)
[7]
  MIC: 33 mg/mL (≈ 266 mM)

## COc1ccc2cc([C@H](C)C(=O)O)ccc2c1 [Naproxen, reference compound]
stomachs; 200 mg/kg oral
  No. of ulcerated animals/No. of treated animals: 5/10

## CCCCC1C(=O)N(c2ccccc2)N(c2ccc(O)cc2)C1=O (stereo not shown) [Tanderil, reference compound]
[5]; 25 mg/kg oral, 4 hours
  Percentage edema inhibition relative to the controls: 58%
[5]; 25 mg/kg oral, 6 hours
  Percentage edema inhibition relative to the controls: 68%
[5]; 50 mg/kg oral, 4 hours
  Percentage edema inhibition relative to the controls: 56%
[5]; 50 mg/kg oral, 6 hours
  Percentage edema inhibition relative to the controls: 78%
Painful reaction; 30 min.
  % Increase in the painful reaction time relative to the controls: 11%
Painful reaction; 60 min.
  % Increase in the painful reaction time relative to the controls: 14%
Painful reaction; 90 min.
  % Increase in the painful reaction time relative to the controls: 15%
Painful reaction; 120 min.
  % Increase in the painful reaction time relative to the controls: 20%
Painful reaction; 150 min.
  % Increase in the painful reaction time relative to the controls: 21%
